US8541418B2, “Inhibitors of polo-like kinase” (Elan Pharmaceutical, Inc., priority 2009, dated 2013)

Tests used:
Format in all cases: biochemical
PLK1 = PLK1 (Homo sapiens, UniProt P53350); experiment: PLK TR-FRET peptide assay, PLK1; details: GST-PLK1, 60 min reaction
PLK2 = PLK2 (Homo sapiens, UniProt Q9NYY3); experiment: PLK TR-FRET peptide assay, PLK2; details: PLK TR-FRET peptide assay, GST-PLK2, 60 min reaction; read-out: Plk2 IC50
PLK3 = PLK3 (Homo sapiens, UniProt Q9H4B4); experiment: PLK TR-FRET peptide assay, PLK3; details: GST-PLK3, 15 min reaction, read-out: Plk3 IC50
Sequence of PLK3 (Q9H4B4 whole entry): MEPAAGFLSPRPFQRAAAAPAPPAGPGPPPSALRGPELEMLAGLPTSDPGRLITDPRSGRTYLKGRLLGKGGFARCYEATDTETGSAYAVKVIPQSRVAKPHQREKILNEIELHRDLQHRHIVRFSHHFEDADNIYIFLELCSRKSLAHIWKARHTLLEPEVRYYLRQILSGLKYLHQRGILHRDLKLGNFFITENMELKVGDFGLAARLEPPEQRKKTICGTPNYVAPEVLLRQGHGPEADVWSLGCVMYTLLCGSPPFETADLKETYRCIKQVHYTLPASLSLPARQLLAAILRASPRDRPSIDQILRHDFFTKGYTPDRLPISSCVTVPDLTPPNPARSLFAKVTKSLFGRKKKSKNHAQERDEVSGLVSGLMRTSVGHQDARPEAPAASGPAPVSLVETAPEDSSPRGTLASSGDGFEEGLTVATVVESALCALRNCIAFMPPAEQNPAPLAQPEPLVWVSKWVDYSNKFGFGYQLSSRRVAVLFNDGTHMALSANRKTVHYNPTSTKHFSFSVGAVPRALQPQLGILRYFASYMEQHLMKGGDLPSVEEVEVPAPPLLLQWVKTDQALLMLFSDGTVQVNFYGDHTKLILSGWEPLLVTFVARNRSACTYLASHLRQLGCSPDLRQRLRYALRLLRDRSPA

Sequence of PLK1 (P53350 whole entry): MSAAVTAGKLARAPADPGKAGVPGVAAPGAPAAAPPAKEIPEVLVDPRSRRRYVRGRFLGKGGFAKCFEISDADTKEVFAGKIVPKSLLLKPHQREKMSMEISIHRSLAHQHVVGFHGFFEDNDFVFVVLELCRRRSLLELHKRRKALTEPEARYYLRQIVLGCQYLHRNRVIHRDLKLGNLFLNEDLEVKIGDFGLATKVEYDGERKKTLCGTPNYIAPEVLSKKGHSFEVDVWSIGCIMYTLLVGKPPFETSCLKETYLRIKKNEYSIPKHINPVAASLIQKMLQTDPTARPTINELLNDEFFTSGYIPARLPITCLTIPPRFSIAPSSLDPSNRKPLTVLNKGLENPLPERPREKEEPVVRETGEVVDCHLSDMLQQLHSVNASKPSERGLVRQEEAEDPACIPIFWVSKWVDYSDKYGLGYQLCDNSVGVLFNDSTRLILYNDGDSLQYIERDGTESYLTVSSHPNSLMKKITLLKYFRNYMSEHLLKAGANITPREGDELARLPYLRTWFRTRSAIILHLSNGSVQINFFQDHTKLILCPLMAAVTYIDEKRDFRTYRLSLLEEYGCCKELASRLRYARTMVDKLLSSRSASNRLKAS
Sequence of PLK2 (Q9NYY3 whole entry): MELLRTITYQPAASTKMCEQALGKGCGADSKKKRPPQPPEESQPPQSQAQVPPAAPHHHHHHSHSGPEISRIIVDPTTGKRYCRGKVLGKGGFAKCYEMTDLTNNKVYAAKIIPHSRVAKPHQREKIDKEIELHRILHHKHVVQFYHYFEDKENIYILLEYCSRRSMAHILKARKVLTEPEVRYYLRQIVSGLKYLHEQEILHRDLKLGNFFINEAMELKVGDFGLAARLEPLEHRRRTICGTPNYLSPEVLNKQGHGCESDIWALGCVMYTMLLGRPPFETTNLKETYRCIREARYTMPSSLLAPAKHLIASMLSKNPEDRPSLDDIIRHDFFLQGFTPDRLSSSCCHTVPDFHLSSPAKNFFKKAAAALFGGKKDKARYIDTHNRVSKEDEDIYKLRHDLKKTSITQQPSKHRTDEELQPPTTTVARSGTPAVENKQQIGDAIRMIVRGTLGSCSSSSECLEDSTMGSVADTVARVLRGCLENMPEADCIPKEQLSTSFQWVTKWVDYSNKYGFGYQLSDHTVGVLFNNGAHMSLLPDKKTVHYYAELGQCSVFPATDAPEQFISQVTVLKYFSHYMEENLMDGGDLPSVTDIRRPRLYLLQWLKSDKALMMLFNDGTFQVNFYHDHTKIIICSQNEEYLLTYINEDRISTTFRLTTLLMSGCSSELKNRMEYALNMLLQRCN

SMILES | IC50 (PLK1) | IC50 (PLK2) | IC50 (PLK3)
CC[C@@H]1C(=O)N(C)c2cnc(-c3ccncc3NS(C)(=O)=O)nc2N1C(C)C [Example 119, (R)—N-(4-(7-ethyl-8-isopropyl-5-methyl-6-oxo-5,6,7,8-tetrahydropteridin-2-yl)pyridin-3-yl)methanesulfonamide] | > 50 µM | 1 to 10 µM | > 50 µM
CC[C@@H]1C(=O)N(C)c2cnc(-c3ccncc3NS(=O)(=O)c3ccccc3)nc2N1C(C)C [Example 120, (R)—N-(4-(7-ethyl-8-isopropyl-5-methyl-6-oxo-5,6,7,8-tetrahydropteridin-2-yl)pyridin-3-yl)benzenesulfonamide] | 1 to 10 µM | 1 to 10 µM | > 50 µM
CC[C@@H]1C(=O)N(C)c2cnc(-c3ccncc3CNC(=O)OC)nc2N1C1CCCC1 [Example 121, (R)-methyl (4-(8-cyclopentyl-7-ethyl-5-methyl-6-oxo-5,6,7,8-tetrahydropteridin-2-yl)pyridin-3-yl)methylcarbamate] | 10 to 50 µM | 1 to 10 µM | 10 to 50 µM
CC[C@@H]1C(=O)N(C)c2cnc(-c3ccncc3CNC(C)=O)nc2N1C1CCCC1 [Example 122, (R)—N-((4-(8-cyclopentyl-7-ethyl-5-methyl-6-oxo-5,6,7,8-tetrahydropteridin-2-yl)pyridin-3-yl)methyl)acetamide] | 10 to 50 µM | 1 to 10 µM | 10 to 50 µM
CC[C@@H]1C(=O)N(C)c2cnc(-c3ccncc3CNC(=O)c3ccccc3)nc2N1C1CCCC1 [Example 123, (R)—N-((4-(8-cyclopentyl-7-ethyl-5-methyl-6-oxo-5,6,7,8-tetrahydropteridin-2-yl)pyridin-3-yl)methyl)benzamide] | 10 to 50 µM | 10 to 50 µM | > 50 µM
CC[C@@H]1C(=O)N(C)c2cnc(-c3ccncc3CNS(C)(=O)=O)nc2N1C1CCCC1 [Example 124, (R)—N-((4-(8-cyclopentyl-7-ethyl-5-methyl-6-oxo-5,6,7,8-tetrahydropteridin-2-yl)pyridin-3-yl)methyl)methanesulfonamide] | 1 to 10 µM | 1 to 10 µM | 10 to 50 µM
CC[C@@H]1C(=O)N(C)c2cnc(-c3ccncc3CNS(=O)(=O)c3ccccc3)nc2N1C1CCCC1 [Example 125, (R)—N-((4-(8-cyclopentyl-7-ethyl-5-methyl-6-oxo-5,6,7,8-tetrahydropteridin-2-yl)pyridin-3-yl)methyl)benzenesulfonamide] | 10 to 50 µM | 1 to 10 µM | 10 to 50 µM
CC[C@@H]1C(=O)N(C)c2cnc(-c3ccncc3CN)nc2N1C(C)C [Example 126, (R)-2-(3-(aminomethyl)pyridin-4-yl)-7-ethyl-8-isopropyl-5-methyl-7,8-dihydropteridin-6(5H)-one] | > 50 µM | 10 to 50 µM | > 50 µM
CC[C@@H]1C(=O)N(C)c2cnc(-c3ccncc3NS(=O)(=O)c3ccccc3)nc2N1C1CCCC1 [Example 127, (R)—N-(4-(8-cyclopentyl-7-ethyl-5-methyl-6-oxo-5,6,7,8-tetrahydropteridin-2-yl)pyridin-3-yl)benzenesulfonamide] | 10 to 50 µM | 10 to 50 µM | > 50 µM
CC[C@@H]1C(=O)N(C)c2cnc(-c3ccncc3CNC(=O)OC)nc2N1C(C)C [Example 128, (R)-methyl (4-(7-ethyl-8-isopropyl-5-methyl-6-oxo-5,6,7,8-tetrahydropteridin-2-yl)pyridin-3-yl)methylcarbamate] | 10 to 50 µM | 1 to 10 µM | 10 to 50 µM
CC[C@@H]1C(=O)N(C)c2cnc(-c3ccncc3CNC(C)=O)nc2N1C(C)C [Example 129, (R)—N-((4-(7-ethyl-8-isopropyl-5-methyl-6-oxo-5,6,7,8-tetrahydropteridin-2-yl)pyridin-3-yl)methyl)acetamide] | > 50 µM | 10 to 50 µM | > 50 µM
CC[C@@H]1C(=O)N(C)c2cnc(-c3ccncc3CNC(=O)c3ccccc3)nc2N1C(C)C [Example 130, (R)—N-((4-(7-ethyl-8-isopropyl-5-methyl-6-oxo-5,6,7,8-tetrahydropteridin-2-yl)pyridin-3-yl)methyl)benzamide] | > 50 µM | > 50 µM | > 50 µM
CC[C@@H]1C(=O)N(C)c2cnc(-c3ccncc3CNS(C)(=O)=O)nc2N1C(C)C [Example 131, (R)—N-((4-(7-ethyl-8-isopropyl-5-methyl-6-oxo-5,6,7,8-tetrahydropteridin-2-yl)pyridin-3-yl)methyl)methanesulfonamide] | > 50 µM | 10 to 50 µM | > 50 µM
CC[C@@H]1C(=O)N(C)c2cnc(-c3ccncc3CNS(=O)(=O)c3ccccc3)nc2N1C(C)C [Example 136, (R)—N-((4-(7-ethyl-8-isopropyl-5-methyl-6-oxo-5,6,7,8-tetrahydropteridin-2-yl)pyridin-3-yl)methyl)benzenesulfonamide] | 10 to 50 µM | 1 to 10 µM | > 50 µM
CC[C@@H]1C(=O)N(C)c2cnc(-n3ccnc3-c3cnccn3)nc2N1C1CC1 [Example 141, (R)-8-cyclopropyl-7-ethyl-5-methyl-2-(2-(pyrazin-2-yl)-1H-imidazol-1-yl)-7,8-dihydropteridin-6(5H)-one] | > 50 µM | 1 to 10 µM | > 50 µM
CC[C@@H]1C(=O)N(C)c2cnc(-c3ccncc3-c3ccccc3)nc2N1C1CC1 [Example 142, (R)-8-cyclopropyl-7-ethyl-5-methyl-2-(3-phenylpyridin-4-yl)-7,8-dihydropteridin-6(5H)-one] | 10 to 50 µM | < 1 µM | 10 to 50 µM
CC[C@@H]1C(=O)N(C)c2cnc(-n3ccnc3-c3cncnc3)nc2N1C1CC1 [Example 143, (R)-8-cyclopropyl-7-ethyl-5-methyl-2-(2-(pyrimidin-5-yl)-1H-imidazol-1-yl)-7,8-dihydropteridin-6(5H)-one] | 10 to 50 µM | 1 to 10 µM | 10 to 50 µM
CC[C@@H]1C(=O)N(C)c2cnc(-n3ccnc3-c3ccncc3)nc2N1C(C)C [Example 150, (R)-7-ethyl-8-isopropyl-5-methyl-2-(2-(pyridin-4-yl)-1H-imidazol-1-yl)-7,8-dihydropteridin-6(5H)-one] | 10 to 50 µM | < 1 µM | 1 to 10 µM
CC[C@@H]1C(=O)N(C)c2cnc(-n3ccnc3-c3nccs3)nc2N1C(C)C [Example 151, (R)-7-ethyl-8-isopropyl-5-methyl-2-(2-(thiazol-2-yl)-1H-imidazol-1-yl)-7,8-dihydropteridin-6(5H)-one] | 1 to 10 µM | < 1 µM | 10 to 50 µM
CC[C@@H]1C(=O)N(C)c2cnc(-n3ccnc3-c3nccs3)nc2N1C1CCC1 [Example 156, (R)-8-cyclobutyl-7-ethyl-5-methyl-2-(2-(thiazol-2-yl)-1H-imidazol-1-yl)-7,8-dihydropteridin-6(5H)-one] | 1 to 10 µM | < 1 µM | 1 to 10 µM
[2H]C([2H])([2H])N1C(=O)C(C([2H])([2H])C([2H])([2H])[2H])N(C([2H])(C([2H])([2H])[2H])C([2H])([2H])[2H])c2nc(-n3ccnc3-c3nccs3)ncc21 (stereo not drawn) [Example 158, 7-perdeuteroethyl-8-perdeuteroisopropyl-5-trideuteromethyl-2-(2-(thiazol-2-yl)-1H-imidazol-1-yl)-7,8-dihydropteridin-6(5H)-one] | 1 to 10 µM | < 1 µM | 10 to 50 µM
[2H]C([2H])([2H])N1C(=O)C(C([2H])([2H])C([2H])([2H])[2H])N(C([2H])(C([2H])([2H])[2H])C([2H])([2H])[2H])c2nc(-n3ccnc3-c3cccc(OC(F)(F)F)c3)ncc21 (stereo not drawn) [Example 160, 7-perdeuteroethyl-8-perdeuteroisopropyl-5-trideuteromethyl-2-(2-(3-(trifluoromethoxy)phenyl)-1H-imidazol-1-yl)-7,8-dihydropteridin-6(5H)-one] | 1 to 10 µM | < 1 µM | 10 to 50 µM
[2H]C([2H])([2H])N1C(=O)C(C([2H])([2H])C([2H])([2H])[2H])N(C([2H])(C([2H])([2H])[2H])C([2H])([2H])[2H])c2nc(-n3ccnc3-c3ccc(C(F)(F)F)cc3)ncc21 (stereo not drawn) [Example 161, 7-perdeuteroethyl-8-perdeuteroisopropyl-5-trideuteromethyl-2-(2-(4-(trifluoromethyl)phenyl)-1H-imidazol-1-yl)-7,8-dihydropteridin-6(5H)-one] | 1 to 10 µM | < 1 µM | 1 to 10 µM
CC[C@@H]1C(=O)N(C)c2cnc(-c3c[nH]nc3-c3ccccc3)nc2N1C(C)C [Example 164, (R)-7-ethyl-8-isopropyl-5-methyl-2-(3-phenyl-1H-pyrazol-4-yl)-7,8-dihydropteridin-6(5H)-one] | < 1 µM | < 1 µM | < 1 µM
[2H]C([2H])([2H])N1C(=O)C(C([2H])([2H])C([2H])([2H])[2H])N(C([2H])(C([2H])([2H])[2H])C([2H])([2H])[2H])c2nc(-c3c[nH]nc3-c3ccccc3)ncc21 (stereo not drawn) [Example 165, 7-perdeuteroethyl-8-perdeuteroisopropyl-5-trideuteromethyl-2-(3-phenyl-1H-pyrazol-4-yl)-7,8-dihydropteridin-6(5H)-one] | < 1 µM | < 1 µM | 1 to 10 µM
CC[C@@H]1C(=O)N(C)c2cnc(-n3ccnc3-c3ccc(C(F)(F)F)cc3)nc2N1C(C)C [Example 166, (R)-7-ethyl-8-isopropyl-5-methyl-2-(2-(4-(trifluoromethyl)phenyl)-1H-imidazol-1-yl)-7,8-dihydropteridin-6(5H)-one] | 1 to 10 µM | < 1 µM | 10 to 50 µM
CC[C@@H]1C(=O)N(C)c2cnc(-c3c[nH]nc3-c3ccc(C(F)(F)F)cc3)nc2N1C(C)C [Example 167, (R)-7-ethyl-8-isopropyl-5-methyl-2-(3-(4-(trifluoromethyl)phenyl)-1H-pyrazol-4-yl)-7,8-dihydropteridin-6(5H)-one] | 1 to 10 µM | < 1 µM | 10 to 50 µM
